Measured values as given in US20210352950A1 (priority 2019, published 2021).

Tests used:
[1] = tested on: HCT116 subcutaneous tumors; test: HCT116 xenograft tumor volume; format: in vivo, mouse; conditions: NSG mice
[2] = tested on: ferrous ion (Fe2+) in HCT116 cells; test: Intracellular ferrous iron detection (Iron Assay Kit); format: cell-based, human; conditions: HCT116, STS 24 hours + vitamin C 350 μM 3 hours, compared to all other conditions
Method: Intracellular ferrous ions were measured using Iron Assay Kit (Cat. #: ab83366). Ferrous ions (Fe^2+), but not ferric ions (Fe^3+) specifically reacts with […] (an iron chromogen) producing a stable colored complex, whose absorbance is measured at 593 nm. For Fe^2+ measurement experiment, cells were seeded in 10 cm petri dish (4×10^5 cells) in CTR medium. After 24 hours cells were rinsed twice in 1×PBS and CTR or STS medium was added. […] Next, cells were lysed in iron assay buffer and intracellular ferrous iron level was measured according to manufacturer protocol. Absorbance was recorded at the wavelength of 593 nm using a microplate reader (Infinite M200 TECAN). Data are expressed as fold change versus control sample.

[3] = intraperitoneal injection; Chen et al., 2007; 2008; cited from earlier work
[4] = tested on: phospho-eIF2a (serine 51); test: eIF2a phosphorylation (western blot); format: cell-based, human; conditions: HCT116, STS 24 hours + vitamin C 350 μM 3 hours
Method: (§1) Cells were washed twice in ice-cold PBS and lysates were prepared in RIPA lysis buffer (50 mM Tris HCl pH 7.4, 150 mM NaCl, 1% NP-40, 0.25% deoxycholic acid, 1 mM EDTA) supplemented with protease and phosphatase inhibitors (protease inhibitor cocktail set III EDTA-free, Calbiochem, Cat. #: S39134; PhosStop, Roche), Samples were sonicated (bioruptor plus, diogenode) and centrifuged at 16.1 g for 30 minutes at 4° C. Tumor tissues were collected and snap frozen in liquid nitrogen immediately after mice were sacrificed, and stored in -80° C. until use. […] Protein concentrations were determined by BCA assay (Thermo Fisher Scientific, Cat. #: 23225). Proteins were diluted in 1× Laemmli sample buffer, boiled at 95° C. for 5 minutes and 30 μg of total proteins were separated by using SDS-PAGE and analyzed by western blotting by standard procedures. […] Membranes were incubated overnight at 4° C. with gentle shaking with the following primary antibodies: […] ADI-SPA894), FTH (1:1000, Cell Signaling, Cat. #: 3998), AMPK (1:1000, Cell Signaling, Cat. #: 2532), phospho-[…] AMPK (1:1000, Cell Signaling, Cat. #: 2535), eIF2a (1:1000, Cell signaling, Cat. #: 5324), phospho […] eIF2a (1:1000, Cell signaling, Cat. #: 3597), AKT (1:1000, Cell Signaling, Cat. #: 9272), phospho-[…] […] Bands intensity was quantified with NIH Image J software (version 1.48v).

[5] = tested on: phospho-AKT (serine 473); test: AKT phosphorylation (western blot); format: cell-based, human; conditions: HCT116, STS 24 hours + vitamin C 350 μM 3 hours
Method: as §1

[6] = tested on: KRAS mutant cancer cells (HCT116, DLD-1, CT26.WT, H23, H727, PANC1); test: Muse cell viability assay, KRAS mutant panel; format: cell-based, human and murine; conditions: CTR condition, vitamin C ≥0.3 mM, 24 hours
[7] = tested on: phospho-AMPK (threonine 172); test: AMPK phosphorylation (western blot); format: cell-based, human; conditions: HCT116, STS 24 hours + vitamin C 350 μM 3 hours
Method: as §1

[8] = tested on: FTH; test: FTH protein expression in cells (western blot); format: cell-based, human and murine; conditions: HCT116, CT26.WT, STS 24 hours + vitamin C 350 μM 3 hours
Method: as §1

[9] = tested on: HO-1; test: HO-1 protein expression in grafted HCT116 tumors; format: in vivo, mouse; conditions: ad libitum or FMD cycles, vitamin C 4 g/kg i.p. twice a day
[10] = tested on: HO-1; test: HO-1 protein expression in CT26.WT (western blot); format: cell-based, murine; conditions: vitamin C 350 μM 3 hours
Method: as §1

[11] = tested on: HCT116 cells; test: Muse cell viability assay (percentage of dead cells); conditions: HCT116, CTR medium, vitamin C ≥0.3 mM (350 μM), 24 hours

SMILES: O=C1O[C@H]([C@@H](O)CO)C(O)=C1O [vitamin C, ascorbic acid]
- tumor progression, single interventions ([1]; 3-days FMD every week or vitamin C 4 g/kg i.p. twice a day): delayed tumor progression
- anti-cancer effect combined with fasting cycles ([1]; 3 cycles of fasting (2 days, water only) + vitamin C 4 g/kg i.p. twice a day): significantly enhanced
- ferrous ion (Fe2+) level [2]: significantly higher
- vitamin C level reached by parenteral (intraperitoneal) administration [3]: 3 mM
- eIF2a phosphorylation level [4]: significantly induced the phosphorylation level
- AKT phosphorylation level (downregulated upon STS) [5]: potentiated even further
- sensitivity to vitamin C [6]: modest sensitivity
- AMPK phosphorylation level [7]: strongly up-regulated AMPK phosphorylation level
- FTH protein expression level [8]: reduces FTH protein expression level
- HO-1 protein expression level in grafted tumors [9]: HO-1 up-regulation
- HO-1 protein expression level [10]: up-regulates HO-1 expression level
- cell death [11]: able to induce cell death
